In patent US11414424B2, “Cardiac sarcomere inhibitors” (Cytokinetics, Inc., priority 2018, dated 2022):

system: bovine cardiac myofibrils; experiment: Myofibril assay: PK/LDH-coupled steady-state ATPase activity of skinned bovine cardiac myofibrils; type: biochemical; conditions: Ca2+ activating to 75% of maximal rate
How it was run: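 Steady-state ATPase of detergent-skinned bovine left-ventricular myofibrils (1 mg/mL), PK/LDH-coupled NADH read at 340 nm, in PIPES/MgCl2 buffer pH 6.8 with 50 μM ATP, 0.6 mM EGTA and CaCl2 set for 50% or 75% activation. Inhibition of activity measured.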

| Compound | CDMF75 IC15 [µM] |
| --- | --- |
| CC1(C)C(=O)N(c2ccc(C#N)cc2F)CC(=O)N1Cc1ccc(C(F)(F)F)cc1 [Compound 279, 4-(3,3-dimethyl-2,5-dioxo-4-(4-(trifluoromethyl)-benzyl)piperazin-1-yl)-3-fluorobenzonitrile] | 1.2 |
| N#Cc1ccc(N2CC3(C2)C(=O)N(C2CCCCC2)CC(=O)N3Cc2ccc(C(F)(F)F)cc2)nc1 [Compound 62, 6-(8-cydohexyl-6,9-dioxo-5-(4-(trifluoromethyl)-benzyl)-2,5,8-triazaspiro[3.5]nonan-2-yl)nicotinonitrile] | 1.8 |
| CC(C)N1CC(=O)N(Cc2ccc(Cl)cc2)C2(CN(c3cn[nH]c3)C2)C1=O [Compound 41, 5-(4-chlorobenzyl)-8-isopropyl-2-(1H-pyrazol-4-yl)-2,5,8-triazaspiro-[3.5]nonane-6,9-dione] | 7.0 |
| N#Cc1ccc(N2CC(=O)N(Cc3ccc(C(F)(F)F)cc3)C3(CN(C(N)=O)C3)C2=O)c(F)c1 [Compound 204, 8-(4-cyano-2-fluorophenyl)-6,9-dioxo-5-(4-(trifluoromethyl)benzyl)-2,5,8-triazaspiro[3.5]nonane-2-carboxamide] | 0.2 |
| Cc1ccc(CN2C(=O)CN(C(C)C)C(=O)C23CN(c2ccnc(C)c2)C3)cc1 [Compound 30, 8-isopropyl-5-(4-methylbenzyl)-2-(2-methylpyridin-4-yl)-2,5,8-triazaspiro[3.5]-nonane-6,9-dione] | 21.1 |
| CNC(=O)N1CC2(C1)C(=O)N(c1ccc(C#N)c(C)c1)CC(=O)N2Cc1ccc(C(F)(F)F)cc1 [Compound 167, 8-(4-cyano-3-methyl-phenyl)-N-methyl-6,9-dioxo-5-(4-(trifluoromethyl)-benzyl)-2,5,8-triazaspiro-[3.5]nonane-2-carboxamide] | 1.3 |
| N#Cc1ccc(N2CC(=O)N(Cc3ccc(C(F)(F)F)cc3)[C@@H](CO)C2=O)c(F)c1 [Compound 287, (S)-3-fluoro-4-(3-(hydroxymethyl)-2,5-dioxo-4-(4-(trifluoromethyl)-benzyl)piperazin-1-yl)-benzonitrile] | 3.2 |
| COc1cc(N2CCC3(C2)C(=O)N(C(C)C)CC(=O)N3Cc2ccc(Cl)cc2)ccn1 (stereo not drawn) [Compound 87, 6-(4-chlorobenzyl)-9-isopropyl-2-(2-methoxypyridin-4-yl)-2,6,9-triazaspiro[4.5]-decane-7,10-dione] | 1.9 |
| CNC(=O)N1CC2(C1)C(=O)N(c1ccc(OC)c(F)c1)CC(=O)N2Cc1ccc(C(F)(F)F)cc1 [Compound 170, 8-(3-fluoro-4-methoxy-phenyl)-N-methyl-6,9-dioxo-5-(4-(trifluoromethyl)-benzyl)-2,5,8-triazaspiro-[3.5]nonane-2-carboxamide] | 2.9 |
| CNC(=O)N1CC2(C1)C(=O)N(c1ccc(C#N)cc1)CC(=O)N2Cc1ccc(Cl)cc1 [Compound 164, 5-(4-chlorobenzyl)-8-(4-cyanophenyl)-N-methyl-6,9-dioxo-2,5,8-triazaspiro-[3.5]nonane-2-carboxamide] | 1.6 |
| CC(C)(C)OC[C@H]1C(=O)N(c2ccc(C#N)cc2F)CC(=O)N1Cc1ccc(C(F)(F)F)cc1 [Compound 285, (S)-4-(3-(tert-butoxymethyl)-2,5-dioxo-4-(4-(trifluoro-methyl)benzyl)piperazin-1-yl)-3-fluorobenzonitrile] | 8.3 |
| CNC(=O)N1CC2(C1)C(=O)N(c1ccc(C#N)nc1)CC(=O)N2Cc1ccc(C(F)(F)F)cc1 [Compound 147, 8-(6-cyanopyridin-3-yl)-N-methyl-6,9-dioxo-5-(4-(trifluoromethyl)benzyl)-2,5,8-triazaspiro[3.5]-nonane-2-carboxamide] | 8.1 |
| CNC(=O)N1CC2(C1)C(=O)N(c1ccc(C)cc1)CC(=O)N2Cc1ccc(C(F)(F)F)cc1 [Compound 153, N-methyl-6,9-dioxo-8-(p-tolyl)-5-(4-(trifluoromethyl)benzyl)-2,5,8-triazaspiro[3.5]-nonane-2-carboxamide] | 6.4 |
| CCN1CC(=O)N(Cc2ccc(Cl)cc2)C2(CCN(c3ccccn3)C2)C1=O (stereo not drawn) [Compound 82, 6-(4-chlorobenzyl)-9-ethyl-2-(pyridin-2-yl)-2,6,9-triazaspiro[4.5]decane-7,10-dione] | 8.1 |
| CC(C)C(=O)N1CC[C@]2(C1)C(=O)N(c1ccc(C#N)cc1F)CC(=O)N2Cc1ccc(Cl)cc1 [Compound 221, (S)-4-(6-(4-chlorobenzyl)-2-isobutyryl-7,10-dioxo-2,6,9-triazaspiro[4.5]decan-9-yl)-3-fluorobenzonitrile] | 4.1 |
| O=C1CN(C2CCCC2)C(=O)C2(CCN(c3ccccn3)C2)N1Cc1ccc(Cl)cc1 (stereo not drawn) [Compound 83, 6-(4-chlorobenzyl)-9-cyclopentyl-2-(pyridin-2-yl)-2,6,9-triazaspiro[4.5]-decane-7,10-dione] | 1.3 |
| CC(C)N1CC(=O)N(Cc2ccc(C(F)(F)F)cc2)C(c2ccc(Cl)cc2)C1=O (stereo not drawn) [Compound 309, 3-(4-chlorophenyl)-1-isopropyl-4-(4-(trifluoro-methyl)benzyl)piperazine-2,5-dione] | 2.8 |
| Cc1cc(N2CC3(C2)C(=O)N(C(C)C)CC(=O)N3Cc2ccc(Cl)cc2)ccn1 [Compound 10, 5-(4-chlorobenzyl)-8-isopropyl-2-(2-methyl-pyridin-4-yl)-2,5,8-triazaspiro[3.5]nonane-6,9-dione] | 5.2 |

More lines, now with the values ahead:

| CDMF75 IC15 [µM] | Compound |
| --- | --- |
| 2.7 | O=C1C(C23CC(O)(C2)C3)N(Cc2ccc(Cl)cc2)C(=O)CN1c1ncc(Cl)cc1F (stereo not drawn) [Compound 841, 1-(5-chloro-3-fluoropyridin-2-yl)-4-(4-chlorobenzyl)-3-(3-hydroxybicyclo[1.1.1]-pentan-1-yl)piperazine-2,5-dione] |
| 19.4 | COc1cnc(N2CC(=O)N(Cc3ccc(C)cc3)C(C3COC3)C2=O)c(F)c1 (stereo not drawn) [Compound 758, 1-(3-fluoro-5-methoxy-pyridin-2-yl)-4-(4-methyl-benzyl)-3-(oxetan-3-yl)-piperazine-2,5-dione] |
| 3.08 | NC(=O)C12CC(C3C(=O)N(c4ncc(Cl)cc4F)CC(=O)N3Cc3ccc(C(F)(F)F)cc3)(C1)C2 (stereo not drawn) [Compound 783, 3-(4-(5-chloro-3-fluoro-pyridin-2-yl)-3,6-dioxo-1-(4-(trifluoromethyl)-benzyl)piperazin-2-yl)bicyclo[1.1.1]pentane-1-carboxamide] |
| 7.3 | Cc1cc(Cl)cnc1N1CC(=O)N(Cc2ccc(Cl)cc2)C(C2(C)COC2)C1=O (stereo not drawn) [Compound 663, 1-(5-chloro-3-methylpyridin-2-yl)-4-(4-chlorobenzyl)-3-(3-methyloxetan-3-yl)-piperazine-2,5-dione] |
| 10.8 | CC(=O)N1CC2(C1)C(=O)N([C@H]1CC[C@H](C)CC1)CC(=O)N2Cc1ccc(C(F)(F)F)cc1 [Compound 322, 2-acetyl-8-((1r,4r)-4-methylcyclohexyl)-5-(4-(trifluoromethyl)benzyl)-2,5,8-triazaspiro[3.5]-nonane-6,9-dione] |
| 22.1 | CNC(=O)N1CC2(C1)C(=O)N([C@H]1CC[C@@H](C#N)C1)CC(=O)N2Cc1ccc(C(F)(F)F)cc1 [Compound 321, 8-((1S,3R)-3-cyano-cyclopentyl)-N-methyl-6,9-dioxo-5-(4-(trifluoromethyl)benzyl)-2,5,8-triazaspiro[3.5]-nonane-2-carboxamide] |
| 1.6 | O=C1CN(c2ncc(Cl)cc2F)C(=O)C2(CC(O)C2)N1Cc1ccc(F)cc1 (stereo not drawn) [Compound 764, 8-(5-chloro-3-fluoropyridin-2-yl)-5-(4-fluorobenzyl)-2-hydroxy-5,8-diazaspiro-[3.5]nonane-6,9-dione] |
| 0.3 | CNc1ccc(N2CC3(C2)C(=O)N(c2ccc(C#N)cc2F)CC(=O)N3Cc2ccc(C(F)(F)F)cc2)cc1C(=O)OC [Compound 543, methyl 5-(8-(4-cyano-2-fluorophenyl)-6,9-dioxo-5-(4-(trifluoromethyl)benzyl)-2,5,8-triazaspiro[3.5]nonan-2-yl)-2-(methylamino)-benzoate] |
| 1.64 | NC(=O)C12CC(C3C(=O)N(c4ncc(Cl)cc4F)CC(=O)N3Cc3ccc(Cl)cc3)(C1)C2 (stereo not drawn) [Compound 835, 3-(4-(5-chloro-3-fluoropyridin-2-yl)-1-(4-chlorobenzyl)-3,6-dioxopiperazin-2-yl)bicyclo[1.1.1]pentane-1-carboxamide] |
| 0.9 | O=C1CN(c2ncc(Cl)cc2F)C(=O)C2(CC2)N1Cc1ccc(Cl)cc1 [Compound 577, 7-(5-chloro-3-fluoropyridin-2-yl)-4-(4-chlorobenzyl)-4,7-diazaspiro[2.5]octane-5,8-dione] |
| >39 | O=C1C(CO)N(Cc2ccc(C(F)(F)F)cc2)C(=O)CN1c1ncc(Cl)cc1F (single isomer, unassigned) [Compound 857B, 1-(5-chloro-3-fluoropyridin-2-yl)-3-(hydroxymethyl)-4-(4-(trifluoromethyl)benzyl)piperazine-2,5-dione] |
| 6.5 | Cc1ccc(CN2C(=O)CN(c3ncc(Cl)cc3F)C(=O)C2C23CC(O)(C2)C3)cc1 (stereo not drawn) [Compound 852, 1-(5-chloro-3-fluoropyridin-2-yl)-3-(3-hydroxybicyclo-[1.1.1]pentan-1-yl)-4-(4-methylbenzyl)piperazine-2,5-dione] |
| >39 | NC(=O)C12CC([C@@H]3C(=O)N(c4ncc(Cl)cc4F)CC(=O)N3Cc3ccc(Cl)cc3)(C1)C2 [Compound 837, (R)-3-(4-(5-chloro-3-fluoro-pyridin-2-yl)-1-(4-chloro-benzyl)-3,6-dioxo-piperazin-2-yl)bicyclo-[1.1.1]pentane-1-carboxamide] |
| 1.5 | O=C1CN(c2ncc(Cl)cc2F)C(=O)C2(COC2)N1Cc1ccc(Cl)cc1 [Compound 575, 8-(5-chloro-3-fluoropyridin-2-yl)-5-(4-chlorobenzyl)-2-oxa-5,8-diazaspiro[3.5]nonane-6,9-dione] |
| 2.9 | CC(=O)N1CC2(C1)C(=O)N(c1ncc(Cl)cc1F)CC(=O)N2Cc1ccc(C(F)(F)F)cc1 [Compound 528, 2-acetyl-8-(5-chloro-3-fluoropyridin-2-yl)-5-(4-(trifluoromethyl)benzyl)-2,5,8-triazaspiro[3.5]nonane-6,9-dione] |
